Values of other authors in US6716459B2, “Composition for inhibiting increase of blood sugar level or lowering blood sugar level” (priority 1998, dated 2004).

Tested on: Ehrlich Ascites Tumour Cells
Conditions: in vitro, Chem. Pharm. Bull. 41(12) 2129-2131 (1993)

SMILES: C[C@H]1[C@H](C)CC[C@]2(C(=O)O)CC[C@]3(C)C(=CC[C@@H]4[C@@]5(C)C[C@@H](O)[C@H](O)C(C)(C)[C@@H]5CC[C@]43C)[C@H]12 [corosolic acid]
- activity on the mobility of grape sugar: activates the mobility of grape sugar
